Experimental data published in paper PMC8392382, “Flavonoids as Human Intestinal α-Glucosidase Inhibitors” (Foods, 2021).
Marks after values point to notes of the source that are not given here.

Tests used:
human maltase = assay: Maltase inhibition in Caco-2/TC7 cell-free extract, maltose as substrate, HPAE-PAD; assay type: biochemical; settings: for 15% inhibitory concentration (IC15) Maltase / 25% inhibitory concentration (IC25) Maltase / IC50: Caco-2/TC7 CFE, mean ± SEM, n = 3; for 15% inhibitory concentration (IC15) Maltase / 25% inhibitory concentration (IC25) Maltase: maltose; for percent inhibition of maltase at maximum concentration tested: maximum concentration: acarbose 200, EGCG 1500, quercetin 200, quercetagetin 50, kaempferol 40, galangin 25 µM; for IC50: 20 mM maltose, 10 min 37 °C, read-out: 50% inhibitory concentration (IC50) Maltase
Description: Disaccharides and monosaccharides were analyzed by HPAE-PAD on the Dionex™ Integrion™ HPIC™ system (Thermo Fisher Scientific). Separation of the carbohydrates was achieved on a CarboPac PA210 column (2 × 150 mm), preceded by a CarboPac PA210 Guard column (2 × 30 mm), with the column and compartment temperatures maintained at 30 °C and 20 °C, respectively. Eluent was generated using a Dionex™ EGC 500 KOH eluent generator cartridge with Dionex™ continuously regenerated-anion trap column 600, with eluent concentration following a multistep gradient: 12 mM for 12 min, 100 mM for 8 min and 12 mM for 12 min, at a flow rate of 0.2 mL/min and with a sample injection volume of 2.5 μL. Detection was performed using a gold working electrode and AgCl reference electrode at pH ~ 12.0, with a collection rate of 2.00 Hz using the “Gold, Carbo, Quad” waveform. The total run time per sample was 32 min, with 3 min allowed between analyses for sample injection by autosampler. A wash injection of only H2O while following the same multistep eluent gradient was performed at the end of every batch (12–14 samples). All injections were performed in duplicate and peak identification was achieved by comparing retention times to the standards. Dionex™ Chromeleon™ 7 Chromatography Data System, version 7.2.9 (Thermo Fisher Scientific, Waltham, MA, USA), was used to process the chromatograms, ensuring peaks were suitably integrated before recording peak area. Sugars were quantified from peak areas using standard curves, with the standards prepared in the same buffer as the samples.
(§1) To mimic intestinal digestion, an in vitro assay using Caco-2/TC7 cell extracts containing sucrase, maltase and isomaltase was conducted. Frozen cells were thawed, 1 mL ice-cold SPB added and then passed through a 21-G needle 15–20 times. The lysate was centrifuged at 14,000× g, 10 min at 4 °C and the supernatant containing cell-free extract (CFE) collected. Total protein concentration in the CFEs was determined by Bradford assay, using the Pierce Coomassie Bradford reagent and BSA standards (Thermo Fisher Scientific, Waltham, MA, USA).
(§2) Assay mixtures, total volume 250 µL, containing CFE (final protein concentration at 0.1–0.35 mg/mL), with or without various concentrations of inhibitors/flavonoids, were prepared and kept on ice. The enzyme reaction was initiated by the addition of ≥20 mM sucrose, maltose or isomaltose and immediately incubating in a 37 °C water bath for 10 min (or various time points during method setup and validation). Following incubation, the enzyme activity was terminated by incubating in a 96 °C water bath for a further 10 min. A positive control without any added inhibitor/flavonoid was simultaneously tested in each batch, and negative controls without enzymes or substrates were also assayed to evaluate the stability of the inhibitors/compounds. Samples were prepared for HPAE-PAD analysis as described in Section 2.3. Specific enzyme activities were determined (U/mg CFE protein) and expressed as a percentage of control enzyme activities accordingly.
(§3) Controls (CFE and substrate only) were prepared by replacing the volume of inhibitor with SPB. Activities of sucrase, maltase and isomaltase were considered as 100% (or 0% inhibition) in the absence of an inhibitor. […] Estimation of inhibition values were determined in GraphPad Prism and the percentage of inhibition of the sample was calculated following Equation (7) below, where SA = specific activity:(7) Inhibition %=SAcontrol − SAsample/SAcontrol×100
Enzyme assays were performed at least once for CFEs from biological triplicates, with duplicate injections of each analyzed by HPAE-PAD. MS Excel (Microsoft, Redmond, WA, USA) was used for data processing and analysis. Final inhibition values were expressed as the percentage of control activity (%). […]

human isomaltase = biological target: T1, human isomaltase (Homo sapiens, UniProt P14410); assay: Isomaltase inhibition in Caco-2/TC7 cell-free extract, isomaltose as substrate, HPAE-PAD; assay type: biochemical; settings: for 15% inhibitory concentration (IC15) Isomaltase / 25% inhibitory concentration (IC25) Isomaltase: isomaltose; for percent inhibition of isomaltase at maximum concentration tested: maximum concentration: acarbose 200, EGCG 1500, quercetin 200, quercetagetin 50, kaempferol 40, galangin 25 µM
T1 construct: an in vitro assay using Caco-2/TC7 cell extracts containing sucrase, maltase and isomaltase was conducted; endogenous in cells; host or cells: Caco-2/TC7 (human colon adenocarcinoma), 21 days post-confluence, crude cell-free extract
Description: (§4) Disaccharides and monosaccharides were analyzed by HPAE-PAD on the Dionex™ Integrion™ HPIC™ system (Thermo Fisher Scientific). Separation of the carbohydrates was achieved on a CarboPac PA210 column (2 × 150 mm), preceded by a CarboPac PA210 Guard column (2 × 30 mm), with the column and compartment temperatures maintained at 30 °C and 20 °C, respectively. […] Detection was performed using a gold working electrode and AgCl reference electrode at pH ~ 12.0, with a collection rate of 2.00 Hz using the “Gold, Carbo, Quad” waveform. […] A wash injection of only H2O while following the same multistep eluent gradient was performed at the end of every batch (12–14 samples). All injections were performed in duplicate and peak identification was achieved by comparing retention times to the standards. Dionex™ Chromeleon™ 7 Chromatography Data System, version 7.2.9 (Thermo Fisher Scientific, Waltham, MA, USA), was used to process the chromatograms, ensuring peaks were suitably integrated before recording peak area. Sugars were quantified from peak areas using standard curves, with the standards prepared in the same buffer as the samples.
as §1, §2
as §3, with “SPB.” for “SPB. Activities of sucrase, maltase and isomaltase were considered as 100% (or 0% inhibition) in the absence of an inhibitor.”
(§5) Enzyme assays were performed at least once for CFEs from biological triplicates, with duplicate injections of each analyzed by HPAE-PAD. MS Excel (Microsoft, Redmond, WA, USA) was used for data processing and analysis. Final inhibition values were expressed as the percentage of control activity (%). The IC15, IC25 and IC50 values were calculated based on the plots created using GraphPad, using the dose-response inhibition (log (inhibitor) vs. normalized response—variable slope) model. The same software was used to determine the apparent Km and Vmax values under the enzyme–kinetic inhibition model, and for statistical analyses using non-parametric multiple comparisons tests. A difference was considered significant at p < 0.05 for all comparisons. All data are expressed as the mean ± SD or SEM, specified accordingly.

human sucrase = biological target: T2, human sucrase (Homo sapiens, UniProt P14410); assay: Sucrase inhibition in Caco-2/TC7 cell-free extract, sucrose as substrate, HPAE-PAD; assay type: biochemical; settings: for IC50 / 15% inhibitory concentration (IC15) Sucrase / 25% inhibitory concentration (IC25) Sucrase: Caco-2/TC7 CFE, mean ± SEM, n = 3; for IC50: 20 mM sucrose, 10 min 37 °C, read-out: 50% inhibitory concentration (IC50) Sucrase; for 15% inhibitory concentration (IC15) Sucrase / 25% inhibitory concentration (IC25) Sucrase: sucrose; for percent inhibition of sucrase at maximum concentration tested: maximum concentration: acarbose 200, EGCG 1500, quercetin 200, quercetagetin 50, kaempferol 40, galangin 25 µM
T2 construct: an in vitro assay using Caco-2/TC7 cell extracts containing sucrase, maltase and isomaltase was conducted; endogenous in cells; host or cells: Caco-2/TC7 (human colon adenocarcinoma), 21 days post-confluence, crude cell-free extract
Description: as §4, §1, §2
as §3, with “SPB.” for “SPB. Activities of sucrase, maltase and isomaltase were considered as 100% (or 0% inhibition) in the absence of an inhibitor.”
as §5

yeast α-glucosidase = test system: yeast α-glucosidase; set-up: method as in PMID 26212963, PMID 30245236, PMID 31007116, PMID 23137344; settings: cited from earlier work
rat sucrase = settings: cited from earlier work
rat maltase = settings: cited from earlier work
[1] = set-up: method as in PMID 9414116; settings: cited from earlier work
[2] = test system: human maltase expressed in yeast; assay: Inhibition of human maltase expressed in yeast (literature); assay type: biochemical; settings: compared with this paper and ref 30
[3] = biological target: human maltase expressed in yeast; set-up: method as in PMID 32218677; settings: cited from earlier work
[4] = Caco-2/TC7 CFE, mean ± SEM, n = 3

T2 sequence (P14410 whole entry): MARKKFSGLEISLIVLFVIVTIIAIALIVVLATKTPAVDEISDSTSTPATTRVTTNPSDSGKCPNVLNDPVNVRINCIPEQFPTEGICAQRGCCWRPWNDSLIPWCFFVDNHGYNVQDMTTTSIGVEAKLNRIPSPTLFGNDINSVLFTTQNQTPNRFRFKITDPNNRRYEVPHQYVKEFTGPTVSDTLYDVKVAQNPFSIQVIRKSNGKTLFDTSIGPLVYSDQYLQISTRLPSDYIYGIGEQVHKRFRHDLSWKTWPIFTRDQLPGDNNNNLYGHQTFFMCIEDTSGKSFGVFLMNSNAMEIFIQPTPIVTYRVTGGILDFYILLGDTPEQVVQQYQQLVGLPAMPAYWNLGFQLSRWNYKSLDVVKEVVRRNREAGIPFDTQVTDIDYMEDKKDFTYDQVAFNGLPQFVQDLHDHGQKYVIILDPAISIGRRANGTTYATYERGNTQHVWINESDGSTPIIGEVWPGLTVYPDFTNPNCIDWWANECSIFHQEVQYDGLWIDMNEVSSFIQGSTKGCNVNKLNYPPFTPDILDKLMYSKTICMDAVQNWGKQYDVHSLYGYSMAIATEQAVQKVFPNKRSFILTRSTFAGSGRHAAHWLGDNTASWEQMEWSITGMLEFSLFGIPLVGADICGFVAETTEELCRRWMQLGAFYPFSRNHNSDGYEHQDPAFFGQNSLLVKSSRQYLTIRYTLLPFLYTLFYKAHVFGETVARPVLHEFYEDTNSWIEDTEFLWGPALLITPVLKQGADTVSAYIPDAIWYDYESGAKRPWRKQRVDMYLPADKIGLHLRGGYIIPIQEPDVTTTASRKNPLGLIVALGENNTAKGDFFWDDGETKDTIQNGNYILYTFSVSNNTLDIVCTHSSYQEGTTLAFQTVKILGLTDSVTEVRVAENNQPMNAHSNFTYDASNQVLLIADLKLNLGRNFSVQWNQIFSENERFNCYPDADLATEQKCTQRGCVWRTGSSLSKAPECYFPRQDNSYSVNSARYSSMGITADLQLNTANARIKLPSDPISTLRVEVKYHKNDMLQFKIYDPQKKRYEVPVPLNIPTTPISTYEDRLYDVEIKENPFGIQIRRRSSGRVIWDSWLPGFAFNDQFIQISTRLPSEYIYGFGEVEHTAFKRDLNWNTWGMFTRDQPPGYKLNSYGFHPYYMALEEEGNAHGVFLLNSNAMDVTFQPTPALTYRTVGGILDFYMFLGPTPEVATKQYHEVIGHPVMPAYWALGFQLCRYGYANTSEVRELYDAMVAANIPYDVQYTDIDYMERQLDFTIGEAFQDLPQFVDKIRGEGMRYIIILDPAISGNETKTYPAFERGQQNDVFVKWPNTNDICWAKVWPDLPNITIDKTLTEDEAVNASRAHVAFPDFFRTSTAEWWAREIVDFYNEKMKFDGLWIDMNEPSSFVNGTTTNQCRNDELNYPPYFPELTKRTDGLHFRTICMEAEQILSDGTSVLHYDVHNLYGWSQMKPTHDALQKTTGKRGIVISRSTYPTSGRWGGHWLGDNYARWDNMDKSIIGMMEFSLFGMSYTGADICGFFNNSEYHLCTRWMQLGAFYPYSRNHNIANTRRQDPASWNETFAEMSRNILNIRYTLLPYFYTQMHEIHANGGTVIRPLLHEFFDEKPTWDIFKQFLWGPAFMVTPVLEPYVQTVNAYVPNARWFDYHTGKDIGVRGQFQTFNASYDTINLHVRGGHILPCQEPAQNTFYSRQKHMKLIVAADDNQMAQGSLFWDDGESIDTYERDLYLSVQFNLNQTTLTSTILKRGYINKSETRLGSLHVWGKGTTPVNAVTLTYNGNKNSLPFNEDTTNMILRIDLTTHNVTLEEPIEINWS
T1 sequence (P14410 whole entry): as above

## O=c1c(O)c(-c2ccc(O)c(O)c2)oc2cc(O)c(O)c(O)c12 [Quercetagetin, quercetagetin]
Human maltase
  15% inhibitory concentration (IC15) Maltase: 3.4 ± 0.9 ^ab µM
  25% inhibitory concentration (IC25) Maltase: 6.7 ± 1.5 ^a µM
  percent inhibition of maltase at maximum concentration tested: ND (48%)
Human isomaltase; [4]
  15% inhibitory concentration (IC15) Isomaltase: 5.9 ± 1.9 ^a µM
  25% inhibitory concentration (IC25) Isomaltase: 20.3 ± 7.3 ^a µM
Human isomaltase
  percent inhibition of isomaltase at maximum concentration tested: ND (29%)
Human sucrase
  IC50: 21.7 ± 5.3 µM
  15% inhibitory concentration (IC15) Sucrase: 3.5 ± 1.1 ^b µM
  25% inhibitory concentration (IC25) Sucrase: 6.6 ± 1.8 ^b µM
  percent inhibition of sucrase at maximum concentration tested: > 50%

## O=c1c(O)c(-c2ccccc2)oc2cc(O)cc(O)c12 [Galangin, galangin]
Human maltase
  15% inhibitory concentration (IC15) Maltase: 8.7 ± 1.1 ^abc µM
  25% inhibitory concentration (IC25) Maltase: 17.6 ± 2.2 ^a µM
  percent inhibition of maltase at maximum concentration tested: ND (22%)
Human isomaltase; [4]
  15% inhibitory concentration (IC15) Isomaltase: 9.3 ± 1.2 ^a µM
Human isomaltase; read-out: percent inhibition of isomaltase at maximum concentration tested
  inhibition at 25 µM: 22%
Human sucrase
  15% inhibitory concentration (IC15) Sucrase: 12.7 ± 2.1 ^c µM
  25% inhibitory concentration (IC25) Sucrase: 20.8 ± 5.5 ^c µM
Human sucrase; read-out: percent inhibition of sucrase at maximum concentration tested
  inhibition at 25 µM: 33%

## O=c1c(O)c(-c2ccc(O)cc2)oc2cc(O)cc(O)c12 [Kaempferol, kaempferol]
Human maltase
  15% inhibitory concentration (IC15) Maltase: 19.0 ± 5.5 ^bc µM
  percent inhibition of maltase at maximum concentration tested: ND (25%)
Human maltase; listed as kaempferol
  percent inhibition of maltase at maximum concentration tested: < 32%
Yeast α-glucosidase
  yeast α-glucosidase inhibition: 95%
Human isomaltase; [4]
  15% inhibitory concentration (IC15) Isomaltase: 12.5 ± 3.7 ^a µM
  25% inhibitory concentration (IC25) Isomaltase: 34.0 ± 8.4 ^a µM
Human isomaltase
  percent inhibition of isomaltase at maximum concentration tested: ND (27%)
Human isomaltase; listed as kaempferol
  percent inhibition of isomaltase at maximum concentration tested: < 32%
Human sucrase
  15% inhibitory concentration (IC15) Sucrase: 14.2 ± 3.7 ^c µM
  25% inhibitory concentration (IC25) Sucrase: 30.3 ± 8.2 ^c µM
  percent inhibition of sucrase at maximum concentration tested: ND (31%)
Human sucrase; listed as kaempferol
  percent inhibition of sucrase at maximum concentration tested: < 32%

## O=c1c(O)c(-c2ccc(O)c(O)c2)oc2cc(O)cc(O)c12 [Quercetin, quercetin]
Rat sucrase
  IC50: > 400 µM
Human maltase
  15% inhibitory concentration (IC15) Maltase: 43.0 ± 3.1 ^d µM
  25% inhibitory concentration (IC25) Maltase: 82.0 ± 4.6 ^c µM
Rat maltase
  IC50: 281 µM
[1]
  half-life: ~ 24 h
Human isomaltase; [4]
  15% inhibitory concentration (IC15) Isomaltase: 104.0 ± 18.8 ^b µM
Human isomaltase
  percent inhibition of isomaltase at maximum concentration tested: ND (18%)
Human sucrase
  IC50: 162 ± 13.6 µM
  15% inhibitory concentration (IC15) Sucrase: 40.5 ± 5.1 ^d µM
  25% inhibitory concentration (IC25) Sucrase: 69.5 ± 8.2 ^d µM
  percent inhibition of sucrase at maximum concentration tested: > 50%

## C[C@H]1O[C@H](O[C@H]2[C@H](O)[C@@H](O)[C@@H](O[C@H]3[C@H](O)[C@@H](O)C(O)O[C@@H]3CO)O[C@@H]2CO)[C@H](O)[C@@H](O)[C@@H]1N[C@H]1C=C(CO)[C@@H](O)[C@H](O)[C@H]1O (stereo partly drawn) [Acarbose, acarbose, reference compound]
Human maltase
  IC50: 13.9 ± 2.3 µM
  15% inhibitory concentration (IC15) Maltase: 2.4 ± 0.4 ^a µM
  25% inhibitory concentration (IC25) Maltase: 4.6 ± 0.8 ^a µM
  percent inhibition of maltase at maximum concentration tested: more than 50%
Human isomaltase; [4]
  15% inhibitory concentration (IC15) Isomaltase: 7.8 ± 0.7 ^a µM
  25% inhibitory concentration (IC25) Isomaltase: 14.4 ± 1.1 ^a µM
Human isomaltase
  percent inhibition of isomaltase at maximum concentration tested: 96%
Human sucrase
  15% inhibitory concentration (IC15) Sucrase: 0.32 ± 0.05 ^a µM
  25% inhibitory concentration (IC25) Sucrase: 0.60 ± 0.09 ^a µM

## O=C(O[C@@H]1Cc2c(O)cc(O)cc2O[C@@H]1c1cc(O)c(O)c(O)c1)c1cc(O)c(O)c(O)c1 [EGCG, (−)-epigallocatechin-3-gallate, reference compound]
Human maltase
  IC50: 186 ± 40.4 µM
  15% inhibitory concentration (IC15) Maltase: 21.7 ± 4.5 ^c µM
  25% inhibitory concentration (IC25) Maltase: 43.8 ± 9.2 ^b µM
[2]
  fold lower IC50 (human maltase expressed in yeast) than with Caco-2/TC7 as the enzyme origin: 8–10 fold
Human isomaltase; Caco-2/TC7 CFE, 20 mM isomaltose, 10 min 37 °C, mean ± SEM, n = 3, read-out: 50% inhibitory concentration (IC50) Isomaltase
  IC50: 462 ± 60.3 µM
Human isomaltase; [4]
  15% inhibitory concentration (IC15) Isomaltase: 118.6 ± 18.0 ^b µM
  25% inhibitory concentration (IC25) Isomaltase: 241.9 ± 40.4 ^b µM
Human isomaltase
  percent inhibition of isomaltase at maximum concentration tested: 71%
Human sucrase
  IC50: 175 ± 60.1 µM
  15% inhibitory concentration (IC15) Sucrase: 41.2 ± 6.0 ^d µM
  25% inhibitory concentration (IC25) Sucrase: 72.9 ± 10.3 ^d µM
  percent inhibition of sucrase at maximum concentration tested: 100%
[3]
  IC50: 20 µM
